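Values below derive from 48-hour exposures of cells grown in 96-well plates, with endpoints linearly interpolated between the two concentrations bracketing the appropriate inhibition level. The concentration for full growth arrest is given as TGI.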
What was measured:
Assay in all cases: NCI anticancer screen, dose series, 48 h
786-0 renal = test system: 786-0 renal
A498 renal = test system: A498 renal
A549 NSCLC = test system: A549 NSCLC
ACHN renal = test system: ACHN renal
CAKI-1 renal = test system: CAKI-1 renal
CCRF-CEM leukemia = test system: CCRF-CEM leukemia
COLO 205 colon = test system: COLO 205 colon
DLD-1 colon = test system: DLD-1 colon
DMS 114 small cell lung = test system: DMS 114 small cell lung
DMS 273 small cell lung = test system: DMS 273 small cell lung
EKVX NSCLC = test system: EKVX NSCLC
HCC-2998 colon = test system: HCC-2998 colon
HCT-116 colon = test system: HCT-116 colon
HCT-15 colon = test system: HCT-15 colon
HL-60(TB) leukemia = test system: HL-60(TB) leukemia
HOP-18 NSCLC = test system: HOP-18 NSCLC
HOP-62 NSCLC = test system: HOP-62 NSCLC
HT29 colon = test system: HT29 colon
IGROV1 ovarian = test system: IGROV1 ovarian
K-562 leukemia = test system: K-562 leukemia
KM12 colon = test system: KM12 colon
KM20L2 colon = test system: KM20L2 colon
LOX IMVI melanoma = test system: LOX IMVI melanoma
LXFL 529 NSCLC = test system: LXFL 529 NSCLC
M14 melanoma = test system: M14 melanoma
M19-MEL melanoma = test system: M19-MEL melanoma
MALME-3M melanoma = test system: MALME-3M melanoma
MOLT-4 leukemia = test system: MOLT-4 leukemia
NCI-H226 lung = test system: NCI-H226 lung
NCI-H23 lung = test system: NCI-H23 lung
NCI-H460 lung = test system: NCI-H460 lung
NCI-H522 lung = test system: NCI-H522 lung
OVCAR-3 ovarian = test system: OVCAR-3 ovarian
OVCAR-4 ovarian = test system: OVCAR-4 ovarian
OVCAR-5 ovarian = test system: OVCAR-5 ovarian
OVCAR-8 ovarian = test system: OVCAR-8 ovarian
RPMI-8226 leukemia = test system: RPMI-8226 leukemia
RXF 393 renal = test system: RXF 393 renal
SF-268 CNS = test system: SF-268 CNS
SF-295 CNS = test system: SF-295 CNS
SK-MEL-2 melanoma = test system: SK-MEL-2 melanoma
SK-MEL-28 melanoma = test system: SK-MEL-28 melanoma
SK-MEL-5 melanoma = test system: SK-MEL-5 melanoma
SK-OV-3 ovarian = test system: SK-OV-3 ovarian
SN12C renal = test system: SN12C renal
SNB-19 CNS = test system: SNB-19 CNS
SNB-75 CNS = test system: SNB-75 CNS
SR leukemia = test system: SR leukemia
SW-620 colon = test system: SW-620 colon
TK-10 renal = test system: TK-10 renal
U251 CNS = test system: U251 CNS
UACC-257 melanoma = test system: UACC-257 melanoma
UACC-62 melanoma = test system: UACC-62 melanoma
UO-31 renal = test system: UO-31 renal
SF-539 CNS = test system: SF-539 CNS
SNB-78 CNS = test system: SNB-78 CNS

SMILES: COC(=O)C(=O)C1(CCC(C)=O)c2ccccc2-c2ccccc21
- TGI (786-0 renal): > 100 µM
- TGI (A498 renal): > 100 µM
- TGI (A549 NSCLC): > 100 µM
- TGI (ACHN renal): > 100 µM
- TGI (CAKI-1 renal): > 100 µM
- TGI (CCRF-CEM leukemia): > 100 µM
- TGI (COLO 205 colon): > 100 µM
- TGI (DLD-1 colon): > 100 µM
- TGI (DMS 114 small cell lung): > 100 µM
- TGI (DMS 273 small cell lung): > 100 µM
- TGI (EKVX NSCLC): > 100 µM
- TGI (HCC-2998 colon): > 100 µM
- TGI (HCT-116 colon): > 100 µM
- TGI (HCT-15 colon): > 100 µM
- TGI (HL-60(TB) leukemia): > 100 µM
- TGI (HOP-18 NSCLC): > 100 µM
- TGI (HOP-62 NSCLC): > 100 µM
- TGI (HT29 colon): > 100 µM
- TGI (IGROV1 ovarian): > 100 µM
- TGI (K-562 leukemia): > 100 µM
- TGI (KM12 colon): > 100 µM
- TGI (KM20L2 colon): > 100 µM
- TGI (LOX IMVI melanoma): > 100 µM
- TGI (LXFL 529 NSCLC): > 100 µM
- TGI (M14 melanoma): > 100 µM
- TGI (M19-MEL melanoma): > 100 µM
- TGI (MALME-3M melanoma): > 100 µM
- TGI (MOLT-4 leukemia): > 100 µM
- TGI (NCI-H226 lung): > 100 µM
- TGI (NCI-H23 lung): > 100 µM
- TGI (NCI-H460 lung): > 100 µM
- TGI (NCI-H522 lung): > 100 µM
- TGI (OVCAR-3 ovarian): > 100 µM
- TGI (OVCAR-4 ovarian): > 100 µM
- TGI (OVCAR-5 ovarian): > 100 µM
- TGI (OVCAR-8 ovarian): > 100 µM
- TGI (RPMI-8226 leukemia): > 100 µM
- TGI (RXF 393 renal): > 100 µM
- TGI (SF-268 CNS): > 100 µM
- TGI (SF-295 CNS): > 100 µM
- TGI (SK-MEL-2 melanoma): > 100 µM
- TGI (SK-MEL-28 melanoma): > 100 µM
- TGI (SK-MEL-5 melanoma): > 100 µM
- TGI (SK-OV-3 ovarian): > 100 µM
- TGI (SN12C renal): > 100 µM
- TGI (SNB-19 CNS): > 100 µM
- TGI (SNB-75 CNS): > 100 µM
- TGI (SR leukemia): > 100 µM
- TGI (SW-620 colon): > 100 µM
- TGI (TK-10 renal): > 100 µM
- TGI (U251 CNS): > 100 µM
- TGI (UACC-257 melanoma): > 100 µM
- TGI (UACC-62 melanoma): > 100 µM
- TGI (UO-31 renal): > 100 µM

SMILES: CCOC(=O)C(C)(C)Oc1ccc2c(=O)cc(-c3ccccc3)oc2c1
- TGI (786-0 renal): 37.7 µM
- TGI (A498 renal): > 100 µM
- TGI (A549 NSCLC): 59 µM
- TGI (ACHN renal): > 100 µM
- TGI (CCRF-CEM leukemia): 43.6 µM
- TGI (COLO 205 colon): 36.8 µM
- TGI (DMS 114 small cell lung): 44 µM
- TGI (EKVX NSCLC): 84.8 µM
- TGI (HCC-2998 colon): > 100 µM
- TGI (HCT-116 colon): 31.1 µM
- TGI (HCT-15 colon): 54.8 µM
- TGI (HL-60(TB) leukemia): 32.8 µM
- TGI (HOP-18 NSCLC): 54.3 µM
- TGI (HOP-62 NSCLC): 41 µM
- TGI (IGROV1 ovarian): 78.4 µM
- TGI (K-562 leukemia): 31.2 µM
- TGI (KM12 colon): 35.9 µM
- TGI (KM20L2 colon): 52.1 µM
- TGI (LOX IMVI melanoma): 37.1 µM
- TGI (LXFL 529 NSCLC): 35.7 µM
- TGI (M14 melanoma): 36.3 µM
- TGI (M19-MEL melanoma): 41.5 µM
- TGI (MALME-3M melanoma): 37.6 µM
- TGI (MOLT-4 leukemia): 32.5 µM
- TGI (NCI-H226 lung): 47 µM
- TGI (NCI-H23 lung): 34.9 µM
- TGI (NCI-H460 lung): > 100 µM
- TGI (NCI-H522 lung): 28.5 µM
- TGI (OVCAR-3 ovarian): 39 µM
- TGI (OVCAR-5 ovarian): > 100 µM
- TGI (OVCAR-8 ovarian): 51.4 µM
- TGI (RPMI-8226 leukemia): 37.8 µM
- TGI (RXF 393 renal): 78.1 µM
- TGI (SF-268 CNS): 56.3 µM
- TGI (SF-295 CNS): 75 µM
- TGI (SF-539 CNS): 38.2 µM
- TGI (SK-MEL-2 melanoma): 31.5 µM
- TGI (SK-MEL-28 melanoma): 30.7 µM
- TGI (SK-MEL-5 melanoma): 28.2 µM
- TGI (SK-OV-3 ovarian): > 100 µM
- TGI (SN12C renal): > 100 µM
- TGI (SNB-19 CNS): 42.8 µM
- TGI (SNB-75 CNS): 57.6 µM
- TGI (SNB-78 CNS): 71.8 µM
- TGI (SW-620 colon): 48.5 µM
- TGI (TK-10 renal): > 100 µM
- TGI (U251 CNS): 44.9 µM
- TGI (UACC-257 melanoma): 31.2 µM
- TGI (UACC-62 melanoma): 33.7 µM
- TGI (UO-31 renal): > 100 µM
